Source: US9550764B2, “Fused heterocyclic compounds and their use” (The Institute of Cancer Research: Royal Cancer Hospital, priority 2012, dated 2017)
Read-outs that look alike come from different tables or passages of the source.

Key:
TOV21G (NA) = assay: SRB proliferation assay, TOV21G (non-amplified control); format: cell-based; conditions: Homo sapiens, 120 h, 5-day incubation, control not amplified (NA)
From the text: (§1) All cell lines were obtained from ATCC except KPL1 which was obtained from Leibniz Institute DSMZ-German Collection of Microorganisms and Cell Cultures, and SMOV2 which was obtained from Dr. Hiroaki Itamochi (Tottori University School of Medicine, Yonago, Japan; see also: ‘Establishment and characterization of human ovarian clear cell adenocarcinoma cell line (SMOV-2), and its cytotoxity by anticancer agents’, Yonamine K at al., Hum Cell., 1999, 12(3), 139-48; and ‘PPM1D Is a Potential Therapeutic Target in Ovarian Clear Cell Carcinoma’, David S. P. Tan et al., Clin Cancer Res, 2009, 15, 2269).
(§2) Representative compounds were assessed in a sulforhodamine B (SRB) proliferation assay in the cell lines shown in the Tables below, according to the following general procedure:
(§3) Cells were seeded in a 96 well plate at a number optimized for each cell line as known in the art; for example as described in Viachai et al, Nature Protocols, 2006, 1 1112-1116. Two fold dilutions of the compounds to be tested were made in culture medium so that, when diluted 5×, the final concentration in the wells was from 50 μM to 0.000191 μM (19 concentrations). A day after seeding the cells in 96 well plates, 25 μl of the compound diluted in the culture medium was added to 100 μl of the cells and incubated at 37° C. and 5% CO2 for 3 or 5 more days as required. After this time, cells were fixed by adding 10% ice cold TCA (in H2O) to 3% final concentration in the wells and by incubating at 4° C. for at least 2 h. Plates were washed 4 times in H2O and allowed to dry in the air. Added 100 μl of 0.057% SRB solution to the dried plates and incubated at room temperature for at least 30 min. Removed SRB solution from the plates and washed four times with 1% acetic acid. Plates were left overnight to dry in the air followed by addition of 100 μl of 10 mM Tris pH 10.5 to each well of the dried plates and incubation on a shaker for 5 min to solubilize the SRB. Optical density was measured at wave length of 490 nm using a plate reader and analysis performed to measure the GI50 using GraphPad PRISM.

SMOV2 (A) = assay: SRB proliferation assay, SMOV2 (PPM1D amplified); format: cell-based; conditions: Homo sapiens, SMOV2, PP1MD amplified cell line (A)
From the text: as §1, §2, §3

HeLa (NA) = assay: SRB proliferation assay, HeLa (non-amplified); format: cell-based; conditions: Homo sapiens, 120 h, 5-day incubation, not amplified (NA)
From the text: as §1, §2
(§4) Cells were seeded in a 96 well plate at a number optimized for each cell line as known in the art; for example as described in Viachai et al, Nature Protocols, 2006, 1 1112-1116. Two fold dilutions of the compounds to be tested were made in culture medium so that, when diluted 5×, the final concentration in the wells was from 50 μM to 0.000191 μM (19 concentrations). […] Optical density was measured at wave length of 490 nm using a plate reader and analysis performed to measure the GI50 using GraphPad PRISM.

MDAMB231 (NA) = assay: SRB proliferation assay, MDAMB231 (non-amplified); format: cell-based; conditions: Homo sapiens, MDA-MB-231, 120 h; 5-day incubation; MDAMB231, not amplified (NA)
From the text: as §1, §2, §4

KPL1 (A) = assay: SRB proliferation assay, KPL1 (amplified); format: cell-based; conditions: KPL-1, 120 h, 5-day incubation
From the text: as §1, §2, §4

[1] = tested on: Phospho-p38, Phospho-p53 S15, cleaved PARP in SMOV2 cells; assay: Western blot analysis of biomarker modulation in SMOV2 cells; format: cell-based, human; conditions: 24 hours treatment, FIG. 1
Procedure: FIG. 1 provides an image showing the results of a Western Blot (LDS-PAGE gel) for cleaved PARP, Phospho-p53 S15, Phospho-p38, and GAPDG, confirming modulation of the biomarkers expected for PP1 MD-mediated inhibition in SMOV2 cells as described in Example 2.
Biomarker modulation by representative compounds was assessed by Western blot analysis in SMOV2 cells using the following procedure:
On day one, 3×10^5 cells were plated per well in a 6 well plate. Next day cells were treated with DMSO control or indicated concentrations of the representative compounds for 24 hours. Treated cells were lysed in complete lysis buffer (50 mM NaCl, 20 mM Tris pH7.5, 1 mM EDTA, 1 mM EGTA, 1% Triton X100, 10 mM NaF, protease Inhibitor tablet and phosphatase inhibitor cocktails) on ice for 10 min. Soluble proteins were separated by centrifugation, and protein concentration was measured using Bradford assay. Samples with equal amount of proteins were prepared and run on LDS-PAGE. Separated proteins were transferred to the nitrocellulose membrane and probed with the Phospho-p38, Phospho-p53 S15, cleaved PARP, γ-H2AX and GAPDH antibodies.

MCF7 (A) = assay: SRB proliferation assay, MCF7 (amplified); format: cell-based; conditions: MCF7a, 120 h, 5-day incubation
From the text: as §1, §2, §4

Cama1 (NA) = assay: SRB proliferation assay, Cama1 (non-amplified); format: cell-based; conditions: Homo sapiens, CAMA-1, 120 h; 5-day incubation; Cama1, not amplified (NA)
From the text: as §1, §2, §4

[2] = 72 h, 3-day incubation, read-out: GI50 3-day SMOV2 (A) SRB
[3] = 120 h, 5-day incubation, read-out: GI50 5-day SMOV2 (A) SRB

Row | Structure (SMILES) | GI50 (TOV21G (NA)) | GI50 (SMOV2 (A); [2]) | GI50 (SMOV2 (A); [3]) | GI50 (HeLa (NA)) | GI50 (MDAMB231 (NA)) | GI50 (KPL1 (A)) | biomarker modulation (Western blot: cleaved PARP, Phospho-p53 S15, Phospho-p38) [1] | GI50 (MCF7 (A)) | GI50 (Cama1 (NA))
1 | O=c1[nH]c2ccc(-c3csc(-c4ccc(F)cc4CCO)n3)cc2o1 [Compound 9, 6-(2-(4-fluoro-2-(2-hydroxyethyl)phenyl)thiazol-4-yl)benzo[d]oxazol-2(3H)-one] | > 10000 nM | 7 nM | 0.6 nM | – | – | – | – | – | –
2 | COCCOCc1cc(F)ccc1-c1nc(-c2ccc3[nH]c(=O)[nH]c3c2)cs1 [Compound 32, 5-(2-(4-fluoro-2-((2-methoxyethoxy)methyl)phenyl)thiazol-4-yl)-1H-benzo[d]imidazol-2(3H)-one] | > 10000 nM | 4.8 nM | 1.6 nM | 5600 nM | > 10000 nM | 36 nM | modulation of the biomarkers expected for PP1MD-mediated inhibition | 4.6 nM | 3900 nM
3 | CN(C)CCc1cc(F)ccc1-c1nc(-c2ccc3[nH]c(=O)oc3c2)cs1 [Compound 16, 6-(2-(2-(2-(dimethylamino)ethyl)-4-fluorophenyl)thiazol-4-yl)benzo[d]oxazol-2(3H)-one] | 9200 nM | 40 nM | 6 nM | – | – | – | – | – | –
4 | O=c1[nH]c2ccc(-c3cccc(-c4ccc(F)cc4)n3)cc2o1 [Compound 30, 6-(6-(4-fluorophenyl)pyridin-2-yl)benzo[d]oxazol-2(3H)-one] | 2700 nM | 280 nM | 35 nM | – | – | – | – | – | –
5 | O=c1[nH]c2ccc(-c3csc(-c4ccc(F)cc4COCCN4CCCC4)n3)cc2o1 [Compound 20, 6-(2-(4-fluoro-2-((2-(pyrrolidin-1-yl)ethoxy)methyl)phenyl)thiazol-4-yl)benzo[d]oxazol-2(3H)-one] | 1500 nM | 13 nM | 11 nM | – | – | – | – | – | –
6 | O=c1[nH]c2ccc(-c3csc(-c4ccc(F)cc4)n3)cc2o1 [Compound 1, 6-(2-(4-fluorophenyl)thiazol-4-yl)benzo[d]oxazol-2(3H)-one] | > 10000 nM | 9 nM | 1.1 nM | – | – | – | – | – | –
7 | Cc1cc(F)ccc1-c1nc(-c2ccc3[nH]c(=O)oc3c2)cs1 [Compound 2, 6-(2-(4-fluoro-2-methylphenyl)thiazol-4-yl)benzo[d]oxazol-2(3H)-one] | > 10000 nM | 1.6 nM | 0.5 nM | – | – | – | – | – | –
8 | CN(C)Cc1cc(F)ccc1-c1nc(-c2ccc3[nH]c(=O)oc3c2)cs1 [Compound 14, 6-(2-(2-((dimethylamino)methyl)-4-fluorophenyl)thiazol-4-yl)benzo[d]oxazol-2(3H)-one] | 1600 nM | 10 nM | 2 nM | – | – | – | – | – | –
9 | COCCOCc1cc(F)ccc1-c1nc(-c2ccc3[nH]c(=O)oc3c2)cs1 [Compound 17, 6-(2-(4-fluoro-2-((2-methoxyethoxy)methyl)phenyl)thiazol-4-yl)benzo[d]oxazol-2(3H)-one] | 9400 nM | 1.2 nM | 0.1 nM | – | – | – | – | – | –
10 | Cc1cc(F)ccc1-c1nc(-c2ccc3c(c2)CC(=O)N3)cs1 [Compound 3, 5-(2-(4-fluoro-2-methylphenyl)thiazol-4-yl)indolin-2-one] | > 10000 nM | 1.2 nM | 0.5 nM | – | – | – | – | – | –
11 | O=c1[nH]c2ccc(-c3csc(-c4ccc(F)cc4CF)n3)cc2o1 [Compound 12, 6-(2-(4-fluoro-2-(fluoromethyl)phenyl)thiazol-4-yl)benzo[d]oxazol-2(3H)-one] | 5200 nM | 2 nM | 0.3 nM | – | – | – | – | – | –
12 | Cc1cc(F)ccc1-c1nc(-c2ccc3[nH]c(=O)n(CCN(C)C)c3c2)cs1 [Compound 21, 1-(2-(dimethylamino)ethyl)-6-(2-(4-fluoro-2-methylphenyl)thiazol-4-yl)-1H-benzo[d]imidazol-2(3H)-one] | 7200 nM | 8 nM | 0.1 nM | – | – | – | – | – | –
13 | O=c1[nH]c2ccc(-c3csc(-c4ccc(F)cc4CO)n3)cc2o1 [Compound 8, 6-(2-(4-fluoro-2-(hydroxymethyl)phenyl)thiazol-4-yl)benzo[d]oxazol-2(3H)-one] | 9200 nM | 23 nM | 0.1 nM | – | – | – | – | – | –
14 | Cc1cc(F)ccc1-c1nc(-c2ccc3[nH]c(=O)[nH]c3c2)cs1 [Compound 4, 5-(2-(4-fluoro-2-methylphenyl)thiazol-4-yl)-1H-benzo[d]imidazol-2(3H)-one] | > 10000 nM | 0.2 nM | 0.1 nM | – | – | – | – | – | –
15 | Cc1c(-c2nc(-c3ccc4[nH]c(=O)oc4c3)cs2)ccc(F)c1F [Compound 27, 6-(2-(3,4-difluoro-2-methylphenyl)thiazol-4-yl)benzo[d]oxazol-2(3H)-one] | > 10000 nM | 1.2 nM | 0.2 nM | – | – | – | – | – | –
